Data on two molecules can be found in publication PMC9138545, “Incorporation of Oxidized Phenylalanine Derivatives into Insulin Signaling Relevant Proteins May Link Oxidative Stress to Signaling Conditions Underlying Chronic Insulin Resistance” (Biomedicines, 2022).

Assay [1] concerns 3T3-L1 adipocytes. The assay is described as follows: Isotope glucose uptake (deoxy-D-glucose 2-[1 2-3H(N)]) in differentiated 3T3-L1 adipocytes. The format is cell-based, mouse. The conditions noted are these: for insulin-induced glucose uptake, time dependence: 200 nmol/L insulin, cells grown 1, 2, 3, 4, 5 or 12 days with p-, n = 5–8; for insulin-induced glucose uptake, time dependence / insulin-induced glucose uptake, 5 mmol/L glucose: m- or o-Tyr; for insulin-induced glucose uptake, 5 mmol/L glucose: 2, 20, 200, 400 nmol/L insulin, medium with p-; for non-stimulated (basal) glucose uptake: no insulin, cells grown 1-12 days with m- or o-Tyr, vs. p-Tyr control. How it is done:
(§1) Early passages of mouse embryo fibroblast (3T3-L1) (ATCC, Manassas, VA, US) were cultured in Dulbecco’s modified Eagle medium (DMEM, Sigma Aldrich, Budapest, Hungary, CAT number: D6046; Invitrogen, Waltham, MA, USA, CAT number: 41966-029) supplemented with 100 U/mL penicillin, 0.1 mg/mL streptomycin (Gibco, Budapest, Hungary, CAT number: 15070-063) and 10% heat-inactivated Fetal Bovine Serum (FBS, Gibco, CAT number: 16170-078), supplemented with 398 nM p-, m-, or o-Tyr (equimolar to the original p-Tyr content of the medium) purchased from Sigma (CAT number: para-Tyr: T8566, m-Tyr: T3629, o-Tyr: 93851). Media contained 25 or 5 mmol/L glucose (experiment dependent) pyruvate and L-glutamine. Cells were grown at 37 °C and 5% CO2. Adipocyte differentiation was achieved by DMEM supplemented with 10% FBS (Gibco, Csertex, Budapest, Hungary, CAT number: 10106-169) (FBS) and a […] insulin (Sigma Aldrich, Budapest, Hungary, CAT number: I 9278), […] isobuthylmethylxanthine (Sigma Aldrich, Budapest, Hungary, CAT number: I 5879), and 250 nmol/L dexamethasone (Sigma Aldrich, Budapest, Hungary, CAT number: 861871) containing cocktail. From day 4 onward, cultures were maintained in DMEM containing 1.5 μg/mL insulin and 10% FBS with a medium change every other day until experimental treatments were started. After 90% of the cell population reached the adipocyte phenotype, prior to all treatments, cells were incubated overnight in serum-deprived medium. Experimental treatment was performed in serum-deprived medium containing 200 or 400 nmol/L insulin, for 5 min.
Initially, cells were kept in glucose-free DMEM (Gibco, Csertex, Budapest, Hungary) for 30 min and then were treated with 2, 20, 200, or 400 nmol/L insulin for 100 min. Concurrently, 1 μCi/mL deoxy-D-glucose 2-[1 2-3H(N)] (3.7 × 104 Bq/mL) (Izotóp Intézet, Budapest, Hungary) was added to the plates for 100 min. After scraping the cells into the medium, they were centrifuged for 5 min at 1000 rpm. We dissolved the sediment in 70 μL of lysis buffer, then glucose uptake was determined by scintillation counting by measuring 30 μL of the sample, using a Beckman LS 5000 TD counter, in counts per minute (CPM), for five minutes each, with average activity was used as the outcome. Following freezing overnight at −70 °C, protein concentration was measured with a Hitachi spectrophotometer. Results were normalized for protein content.

For assay [2], the system named is 3T3-L1 adipocytes. Nature of the assay: HPLC of non-protein-bound intracellular tyrosines. The format is cell-based, mouse. The conditions noted are these: for cellular uptake of amino acids (non-protein-bound intracellular content): 5 or 25 mmol/L glucose, with or without 400 nmol/L insulin; for uptake by fat cells: time-dependent incubation. How it is done: as §1
To measure the total intracellular non-protein-bound tyrosine concentration, prior to the freezing of samples overnight at −70 °C to achieve cell lysis, 200 μL distilled water was added to each. After melting up, samples were centrifuged for 15 min at 15,000 rpm. A total of 200 µL of the supernatant was mixed with 200 µL of 60% trichloroacetic acid. After 30 min incubation on ice, samples were centrifuged again at 15,000 rpm for 15 min. Then, the supernatant was filtered and was diluted 5-fold and then 160 µL distilled water was added to 40 µL of filtrate, followed by the injection of the mixture onto the HPLC column.
The amounts of p-, o-, m-Tyr and Phe in the samples were determined by measuring their autofluorescence. Thus, no derivatization or staining was needed. Samples were measured on a Shimadzu Class 10 HPLC system equipped with an RF-10 AXL fluorescent detector (Shimadzu USA Manufacturing Inc., Canby, OR, USA). The mobile phase consisted of 1% sodium acetate and 1% acetic acid dissolved in water. The separation took place on a LiChroCHART 250-4 column (Merck KGaA, Darmstadt 64271, Germany) in an isocratic run. Wavelengths of 275 nm for excitation and 305 nm for emission were used to assess p-, o- and m-Tyr, while Phe was detected at 258 nm excitation and 288 nm emission wavelengths. Determination of the area under the curve (AUC) plus external standard calibration was used to calculate the precise concentrations of the amino acids.

For assay [3], the system named is GLUT4 and vimentin in podocytes. The assay is described as follows: Immunofluorescence of GLUT4 and vimentin in insulin-treated podocytes. The format is cell-based, human. The conditions noted are these: for GLUT4 membrane localization: 400 nmol/l insulin for 10 min. How it is done:
The conditionally immortalized human podocyte cell line (provided by Moin Saleem, University of Bristol, UK) was cultured in RPMI1640 medium (R8756, Sigma Aldrich, Budapest, Hungary) supplemented with 10% heat-inactivated FBS (16170-078, Gibco, Budapest, Hungary), insulin-transferrin-selenium supplement (41400-045, Gibco), 100 U/mL penicillin, 0.1 mg/mL streptomycin (P4333, Sigma), and […] (equimolar to the original p-Tyr content of the medium) para-, meta-, or ortho-Tyr. The cells were grown at 33 °C 5% CO2, and when they reached 40–60% confluency they were transferred to 37 °C to differentiate. Following the thermoswitching, cells were kept on RPMI1640 medium containing 2% FBS, antibiotics, and different tyrosines. Before every treatment, cells were incubated in serum-deprived medium overnight.
In a 6-well plate, 104 cells were cultured on glass coverslips washed with alcohol and dried under UV light. The podocyte cells were grown in RPMI1640 medium supplemented with 10% heat-inactivated FBS at 33 °C, 5% CO2. When they reached 60% confluence, the medium was changed to RPMI1640 medium containing 2% FBS and 112.05 nM of the different tyrosine isoforms, then the plates were transferred to 37 °C, 5% CO2 to allow the cells to differentiate. The different tyrosine isoforms were added to the maintenance medium. The cells were serum deprived overnight, then incubated with 400 nmol/l insulin for 10 min. After removal of the medium, the coverslips were washed twice with PBS. The cells were fixed at room temperature in 2% paraformaldehyde and 4% sucrose for 8 min, then permeabilized using 0.3% Trion X-100 in 1xPBS for 20 min and blocked in 2.5% BSA for 45 min [45]. The primary antibody was diluted in 1xPBS, and the cells were incubated in it for 60 min in humid conditions. The antibodies we used were mouse anti-WT1 antibody (H-1) (1:100, Santa Cruz Biotechnology, Dallas, TX, USA), chicken anti-vimentin antibody (1:100, Abcam), rabbit anti-glucose transporter GLUT4 antibody (1:100, Abcam, Cambridge, UK), mouse Insulin Receptor Substrate-1 antibody (1:100, Invitrogen, Waltham, MA, USA), and rabbit anti-phospho-Insulin Receptor Substrate-1 (pTyr612) antibody (1:10, Sigma). Coverslips were washed in PBS three times for 5 min in PBS and incubated in the fluorophore-conjugated secondary antibodies anti-goat, anti-chicken, secondary antibody Alexa fluor 647, anti-rabbit Alexa fluor 350, and anti-mouse Alexa Fluor 488 (1:10, Invitrogen) for 60 min. Samples were then washed in PBS three times for 5 min and mounted in Vectashield (Vector Laboratories). Images were taken with a Nikon Eclipse Ti2 microscope.

In the case of `NC(Cc1ccccc1O)C(=O)O` (centres unmarked) [o-Tyr, ortho-tyrosine], in the assay on 3T3-L1 adipocytes [1], the “insulin-induced glucose uptake, time dependence” value is recorded as “no significant effect”; the “insulin-induced glucose uptake, 5 mmol/L glucose” value is recorded as “failed to induce the glucose uptake”; the “non-stimulated (basal) glucose uptake” value is listed as “lower than that of the p-Tyr control”. Moreover, in the assay on 3T3-L1 adipocytes [2], the “cellular uptake of amino acids (non-protein-bound intracellular content)” value is “continuous uptake of amino acids which was independent of glucose concentration (5 or 25 mmol/L) and the presence of insulin”; the “uptake by fat cells” value was “Taken Up by Fat Cells within Several Minutes”. In assay [3], the vimentin filaments entry was “thicker vimentin filaments” and the GLUT4 membrane localization entry is given as “not characteristic in o-Tyr treated cells, which shows rather a perinuclear localization”.

Take `N[C@@H](Cc1cccc(O)c1)C(=O)O` [m-Tyr, meta-tyrosine]: in the assay on 3T3-L1 adipocytes [1], the “insulin-induced glucose uptake, time dependence” value is reported as “no significant effect”; the “insulin-induced glucose uptake, 5 mmol/L glucose” value is “failed to induce the glucose uptake”; the “non-stimulated (basal) glucose uptake” value was “lower than that of the p-Tyr control”. Moreover, in the assay on 3T3-L1 adipocytes [2], the “cellular uptake of amino acids (non-protein-bound intracellular content)” value is “continuous uptake of amino acids which was independent of glucose concentration (5 or 25 mmol/L) and the presence of insulin”; the “uptake by fat cells” value is “Taken Up by Fat Cells within Several Minutes”. In addition, in assay [3], the vimentin filaments entry is given as “thicker vimentin filaments” and the GLUT4 membrane localization result is reported as “slightly visible”.
